Results as given in patent US9499519B2, “Fused pyrimidine compounds and use thereof” (Medivation Technologies, Inc., priority 2012, dated 2016).
Where two headings read alike, the source gives them in different places.

Key:
IR = molecular target: T1, IR (Homo sapiens, UniProt P06213); assay: In vitro IR enzymatic assay (ADP-Glo kinase assay); type: biochemical; conditions: for inhibition at 0.03 µM: activated IR, 30 nM
T1 construct: purchased Millipore 14-803
Method: (§1) IC50 values of the compounds of the invention against IGF-1R and IR were measured in vitro using an ADP-Glo kinase assay Kit (Promega). […] Kinase reactions in both assays were conducted at 30° C. for 20 min with increasing concentrations of compounds of the invention.
Additional compounds of the invention were screened against activated IR.

AMPK = assay: RapidKinase192 panel: AMPK; type: biochemical
[1] = test system: Akt phosphorylation induced by IGF-1R; assay: Western blot analysis of Akt phosphorylation induced by IGF-1 in HT-29 cells; type: cell-based, Human; conditions: for Levels of phosphorylated AKT in treated cells (pAKT/actin): HT-29 cells, IGF-1; for p-AKT relative to levels with 0.1 nM compound: Table B2 lower part; for Normalized phosphorylated AKT (relative to actin) levels relative to 0.1 nM compound treatment: Table B2 upper part
In short: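 HT-29 cells grown 24 h in DME/F12 with 10% FBS, serum-starved 24 h, then exposed 2 h to compound at 0.1, 1, 10 or 100; controls received DMSO or 10 ng/mL IGF-1. Lysate soluble fractions quantified by BCA before western blotting for phospho-Akt.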

IGF-1R = molecular target: T2, IGF-1R (Homo sapiens, UniProt P08069); assay: In vitro IGF-1R enzymatic assay (ADP-Glo kinase assay); type: biochemical; conditions: for inhibition at 0.03 µM: activated IGF-1R, 30 nM
T2 construct: purchased Millipore 14-802
Method: as §1
Additional compounds of the invention were screened against activated IGF-1R.

HT-29 = assay: Cell Titer-Glo cell viability: HT-29; type: cell-based; conditions: Homo sapiens, Table B16, colon adenocarcinoma
Method: (§2) This assay quantitates the ATP present in order to determine the number of viable cells in culture. Briefly, the compounds were incubated with the cells for 72 h, followed by cell lysis. The resulting luminescent signal is proportional to the amount of ATP present and, therefore, directly proportional to the number of cells present in culture.
(§3) Compound nos. […] These cell lines are derived from human lung carcinoma, colon adenocarcinoma, colon adenocarcinoma, colon carcinoma, acute promyelocytic leukemia, colon adenocarcinoma, colon adenocarcinoma (from metastatic site lymph node), respectively.
(§4) Compounds 2b, 5, 6b and 10a were tested along with derivatives in viability assays as described above by Caliper LifeSciences Systems (Hanover, Md.), in A549, HCT-15, HCT-116, MCF-7, MDA-MB-231, OVCAR3, T47D, COLO205, HT-29, BT-20, HCC1187, HL-60, MDA-MB-175, SW-620, and UACC812 cells.

HCT-116 = assay: Cell Titer-Glo cell viability: HCT-116; type: cell-based; conditions: Homo sapiens, Table B16, colon carcinoma, read-out: IC50 cell viability HCT116
Method: as §2, §3, §4

[2] = test system: panel of cancer cell lines; assay: Cell Titer-Glo cell viability, whole panels of cancer cell lines; type: cell-based; conditions: all cell lines tested
Method: Compound nos. […] This panel of cell lines includes an ER− breast carcinoma, primary breast ductal carcinoma, prostate adenocarcinoma, mammary adenocarcinoma, mammary ductal carcinoma, mammary ductal carcinoma, ovary adenocarcinoma, ER+ breast carcinoma, ER− HER2+ mammary ductal carcinoma and an ER+ mammary ductal carcinoma, respectively.
as §2, §3

[3] = N1, read-out: % Inh @ 30 nM (N1)
[4] = N2, read-out: % Inh @ 30 nM (N2)
[5] = average, read-out: % Inh @ 30 nM Avg

T2 sequence (P08069 31-1367): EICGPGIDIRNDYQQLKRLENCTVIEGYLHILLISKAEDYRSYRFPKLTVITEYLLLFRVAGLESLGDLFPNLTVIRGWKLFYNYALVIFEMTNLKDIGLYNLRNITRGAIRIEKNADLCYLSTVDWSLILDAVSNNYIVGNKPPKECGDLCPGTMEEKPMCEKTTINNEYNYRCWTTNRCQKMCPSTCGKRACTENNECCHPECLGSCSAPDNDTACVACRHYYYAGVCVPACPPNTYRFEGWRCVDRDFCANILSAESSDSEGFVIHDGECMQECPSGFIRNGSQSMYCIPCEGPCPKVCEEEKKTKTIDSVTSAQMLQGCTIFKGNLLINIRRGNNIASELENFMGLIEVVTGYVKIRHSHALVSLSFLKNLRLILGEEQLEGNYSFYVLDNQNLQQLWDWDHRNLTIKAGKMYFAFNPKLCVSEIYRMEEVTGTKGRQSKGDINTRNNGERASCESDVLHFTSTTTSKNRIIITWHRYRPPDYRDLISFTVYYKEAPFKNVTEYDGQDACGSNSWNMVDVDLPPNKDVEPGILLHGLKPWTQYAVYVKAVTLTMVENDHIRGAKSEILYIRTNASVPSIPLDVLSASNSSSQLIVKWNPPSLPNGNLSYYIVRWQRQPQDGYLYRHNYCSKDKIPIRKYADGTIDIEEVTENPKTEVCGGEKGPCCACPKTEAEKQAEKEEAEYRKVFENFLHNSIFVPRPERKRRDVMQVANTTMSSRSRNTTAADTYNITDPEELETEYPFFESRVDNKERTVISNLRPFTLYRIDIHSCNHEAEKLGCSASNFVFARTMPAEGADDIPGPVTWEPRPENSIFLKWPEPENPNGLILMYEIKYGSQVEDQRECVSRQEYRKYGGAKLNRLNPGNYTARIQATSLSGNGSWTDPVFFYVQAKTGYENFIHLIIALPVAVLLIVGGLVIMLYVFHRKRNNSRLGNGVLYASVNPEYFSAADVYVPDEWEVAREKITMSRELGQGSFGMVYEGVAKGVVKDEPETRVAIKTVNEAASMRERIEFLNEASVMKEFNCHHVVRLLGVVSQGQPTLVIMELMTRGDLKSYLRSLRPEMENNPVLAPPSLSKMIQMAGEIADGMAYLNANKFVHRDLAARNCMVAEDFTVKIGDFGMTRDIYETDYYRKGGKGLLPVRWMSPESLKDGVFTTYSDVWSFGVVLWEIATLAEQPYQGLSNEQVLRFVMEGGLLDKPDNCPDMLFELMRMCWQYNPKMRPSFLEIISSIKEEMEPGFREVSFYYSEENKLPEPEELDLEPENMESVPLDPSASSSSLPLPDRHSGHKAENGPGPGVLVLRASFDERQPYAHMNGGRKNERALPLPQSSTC
T1 sequence (P06213 28-1382): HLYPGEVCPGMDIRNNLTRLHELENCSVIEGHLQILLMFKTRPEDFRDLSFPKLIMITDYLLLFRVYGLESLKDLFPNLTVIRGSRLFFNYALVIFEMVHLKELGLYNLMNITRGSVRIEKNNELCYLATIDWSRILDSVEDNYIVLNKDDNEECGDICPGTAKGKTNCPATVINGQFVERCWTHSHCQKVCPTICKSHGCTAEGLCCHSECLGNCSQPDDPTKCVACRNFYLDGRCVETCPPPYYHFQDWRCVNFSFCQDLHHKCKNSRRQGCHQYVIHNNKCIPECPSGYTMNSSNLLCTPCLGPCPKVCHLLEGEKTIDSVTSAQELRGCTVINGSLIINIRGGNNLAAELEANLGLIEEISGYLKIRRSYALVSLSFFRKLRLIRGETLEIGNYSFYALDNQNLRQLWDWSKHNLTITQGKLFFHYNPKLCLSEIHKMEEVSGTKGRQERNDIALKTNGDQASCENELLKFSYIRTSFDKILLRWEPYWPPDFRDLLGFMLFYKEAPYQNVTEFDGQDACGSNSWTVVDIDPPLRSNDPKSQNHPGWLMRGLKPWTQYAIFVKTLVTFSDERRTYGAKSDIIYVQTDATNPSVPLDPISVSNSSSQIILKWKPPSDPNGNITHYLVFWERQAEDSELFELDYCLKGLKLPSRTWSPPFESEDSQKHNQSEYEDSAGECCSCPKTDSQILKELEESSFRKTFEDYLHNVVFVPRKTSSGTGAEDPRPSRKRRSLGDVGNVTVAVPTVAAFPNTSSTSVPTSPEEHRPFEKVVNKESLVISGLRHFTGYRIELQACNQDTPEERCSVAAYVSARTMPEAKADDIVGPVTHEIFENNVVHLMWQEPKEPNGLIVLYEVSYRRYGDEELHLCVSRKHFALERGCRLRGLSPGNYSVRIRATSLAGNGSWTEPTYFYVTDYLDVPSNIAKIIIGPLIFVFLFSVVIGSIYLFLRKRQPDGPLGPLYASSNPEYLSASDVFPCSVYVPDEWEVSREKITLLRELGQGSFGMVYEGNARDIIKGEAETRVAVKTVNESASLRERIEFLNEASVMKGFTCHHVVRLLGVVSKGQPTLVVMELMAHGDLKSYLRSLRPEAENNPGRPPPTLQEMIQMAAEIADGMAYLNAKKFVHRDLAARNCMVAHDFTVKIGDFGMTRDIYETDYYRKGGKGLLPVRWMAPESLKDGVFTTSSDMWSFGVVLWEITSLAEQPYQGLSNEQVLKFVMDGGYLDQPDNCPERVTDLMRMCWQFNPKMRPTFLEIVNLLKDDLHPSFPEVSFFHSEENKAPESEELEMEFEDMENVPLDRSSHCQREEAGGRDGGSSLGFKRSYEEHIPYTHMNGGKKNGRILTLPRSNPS

## O=C(Nc1ccc(F)nc1)C1CCCN1c1nc2c(c(Nc3cc(C4CC4)[nH]n3)n1)CCC2 (single isomer, unassigned) [Compound 2b, 1-(4-(5-cyclopropyl-1H-pyrazol-3-ylamino)-6,7-dihydro-5H-cyclopenta[d]pyrimidin-2-yl)-N-(6-fluoropyridin-3-yl)pyrrolidine-2-carboxamide]
IR; IR, run N1
  Hill Slope N1: 1.34
IR; IR, run N2
  Hill Slope N2: 1.13
IR; [3]
  inhibition at 0.03 µM: 92%
IR; [4]
  inhibition at 0.03 µM: 88%
IR; [5]
  inhibition at 0.03 µM: 90%
AMPK
  Average % Inh @ 10 nM: + (+=Low)
  Average % Inh @ 100 nM: ++ (++=Med)
  Average % Inh @ 1 μM: +++ (+++=High)
[1]; 0.1 nM compound
  Levels of phosphorylated AKT in treated cells (pAKT/actin): 1.57
[1]; 0.1 nM
  p-AKT relative to levels with 0.1 nM compound: 1.0
  Normalized phosphorylated AKT (relative to actin) levels relative to 0.1 nM compound treatment: 1.0
[1]; 1 nM compound
  Levels of phosphorylated AKT in treated cells (pAKT/actin): 0.80
[1]; 1 nM
  p-AKT relative to levels with 0.1 nM compound: 0.5
  Normalized phosphorylated AKT (relative to actin) levels relative to 0.1 nM compound treatment: 0.5
[1]; 10 nM compound
  Levels of phosphorylated AKT in treated cells (pAKT/actin): 0.22
[1]; 10 nM
  p-AKT relative to levels with 0.1 nM compound: 0.1
  Normalized phosphorylated AKT (relative to actin) levels relative to 0.1 nM compound treatment: 0.1
[1]; 100 nM compound
  Levels of phosphorylated AKT in treated cells (pAKT/actin): 0.03
[1]; 100 nM
  p-AKT relative to levels with 0.1 nM compound: 0.0
  Normalized phosphorylated AKT (relative to actin) levels relative to 0.1 nM compound treatment: 0.0
IGF-1R; IGF-1R, run N1
  Hill Slope N1: 1.195
IGF-1R; IGF-1R, run N2
  Hill Slope N2: 1.384
IGF-1R; [3]
  inhibition at 0.03 µM: 90%
IGF-1R; [4]
  inhibition at 0.03 µM: 88%
IGF-1R; [5]
  inhibition at 0.03 µM: 89%
HT-29
  IC50: < 10 nM
HCT-116
  IC50: 1000 nM
[2]
  potency in cell viability assays compared with OSI-906 and BMS-754807: more potent effects
